Experimental data from ChEMBL document CHEMBL3885861, “Open TG-GATES”.

Organism: Rattus norvegicus
Assay: Open TG-GATES - Regimen: Single
Type: toxicity, organism-based, Sprague-Dawley
Set-up: regimen Single, gender Male, age 6 weeks
Settings: in vivo, sc, 0.02 mg/kg, route subcutaneous injection, dose 20 ug/Kg, dose level Low; for APTT / Bas / Eos / Fbg / Hb / Ht / Lym / MCH / MCHC / MCV / Mono / Neu / PT / Plat / RBC / Ret / WBC: tissue Blood; for KIDNEY_L / KIDNEY_R / KIDNEY_TOTAL: tissue Kidney; for LIVER: tissue Liver; for A/G / ALP / ALT / AST / BUN / CRE / Ca / Cl / DBIL / GLC / IP / K / LDH / Na / PL / RALB / TBIL / TC / TG / TP / gamma-GTP: tissue Plasma

CC(=O)O.N=C(N)NCCC[C@@H](NC(=O)[C@@H]1CCCN1C(=O)[C@@H]1CSSCCC(=O)N[C@@H](Cc2ccc(O)cc2)C(=O)N[C@@H](Cc2ccccc2)C(=O)N[C@@H](CCC(N)=O)C(=O)N[C@@H](CC(N)=O)C(=O)N1)C(=O)NCC(N)=O [DESMOPRESSIN ACETATE]
TERMINAL_BW (3 h): 210.4 g
APTT (3 h): 17.8 s
Bas (3 h): 0%
Eos (3 h): 1%
Fbg (3 h): 236 mg/dL
Hb (3 h): 12.9 g/dL
Ht (3 h): 39.5%
Lym (3 h): 71.4%
MCH (3 h): 22.1 pg
MCHC (3 h): 32.7%
MCV (3 h): 67.5 fL
Mono (3 h): 8.6%
Neu (3 h): 18.6%
PT (3 h): 12.3 s
Plat (3 h): 120.4 x10_4/uL
RBC (3 h): 586 x10_4/ul
Ret (3 h): 9.1%
WBC (3 h): 90.2 x10_2/uL
KIDNEY_L (3 h): 1 g
KIDNEY_R (3 h): 1 g
KIDNEY_TOTAL (3 h): 1.9 g
LIVER (3 h): 10 g
A/G (3 h): 2
ALP (3 h): 1379 IU/L
ALT (3 h): 39.2 IU/L
AST (3 h): 68.8 IU/L
BUN (3 h): 21.2 mg/dL
CRE (3 h): 0.3 mg/dL
Ca (3 h): 11.1 mg/dL
Cl (3 h): 102.8 meq/L
DBIL (3 h): 0.01 mg/dL
GLC (3 h): 194.4 mg/dL
IP (3 h): 9.9 mg/dL
K (3 h): 4.5 meq/L
LDH (3 h): 123.8 IU/L
Na (3 h): 135.4 meq/L
PL (3 h): 142 mg/dL
RALB (3 h): 3.6 g/dL
TBIL (3 h): 0.05 mg/dL
TC (3 h): 81.8 mg/dL
TG (3 h): 64.4 mg/dL
TP (3 h): 5.4 g/dL
gamma-GTP (3 h): 1 IU/L
TERMINAL_BW (6 h): 202.1 g
APTT (6 h): 17.3 s
Bas (6 h): 0%
Eos (6 h): 1%
Fbg (6 h): 232.8 mg/dL
Hb (6 h): 12.9 g/dL
Ht (6 h): 39.6%
Lym (6 h): 77.8%
MCH (6 h): 21.5 pg
MCHC (6 h): 32.6%
MCV (6 h): 66.1 fL
Mono (6 h): 8%
Neu (6 h): 13.2%
PT (6 h): 12.7 s
Plat (6 h): 116.8 x10_4/uL
RBC (6 h): 598.6 x10_4/ul
Ret (6 h): 9.1%
WBC (6 h): 105.6 x10_2/uL
KIDNEY_L (6 h): 1 g
KIDNEY_R (6 h): 1 g
KIDNEY_TOTAL (6 h): 2 g
LIVER (6 h): 9.1 g
A/G (6 h): 1.9
ALP (6 h): 1160 IU/L
ALT (6 h): 31.2 IU/L
AST (6 h): 60 IU/L
BUN (6 h): 25.4 mg/dL
CRE (6 h): 0.3 mg/dL
Ca (6 h): 10.8 mg/dL
Cl (6 h): 103.6 meq/L
DBIL (6 h): 0.014 mg/dL
GLC (6 h): 199 mg/dL
IP (6 h): 9.6 mg/dL
K (6 h): 4.8 meq/L
LDH (6 h): 109.4 IU/L
Na (6 h): 135 meq/L
PL (6 h): 142.8 mg/dL
RALB (6 h): 3.5 g/dL
TBIL (6 h): 0.074 mg/dL
TC (6 h): 85 mg/dL
TG (6 h): 62.4 mg/dL
TP (6 h): 5.3 g/dL
gamma-GTP (6 h): 1 IU/L
TERMINAL_BW (9 h): 202.1 g
APTT (9 h): 16.9 s
Bas (9 h): 0%
Eos (9 h): 1.4%
Fbg (9 h): 229 mg/dL
Hb (9 h): 13 g/dL
Ht (9 h): 40.1%
Lym (9 h): 72%
MCH (9 h): 21.8 pg
MCHC (9 h): 32.6%
MCV (9 h): 67.1 fL
Mono (9 h): 8.4%
Neu (9 h): 18.4%
PT (9 h): 12.8 s
Plat (9 h): 118 x10_4/uL
RBC (9 h): 598.2 x10_4/ul
Ret (9 h): 9.3%
WBC (9 h): 94.6 x10_2/uL
KIDNEY_L (9 h): 1 g
KIDNEY_R (9 h): 0.9 g
KIDNEY_TOTAL (9 h): 1.9 g
LIVER (9 h): 8.7 g
A/G (9 h): 2.2
ALP (9 h): 1148.8 IU/L
ALT (9 h): 32.2 IU/L
AST (9 h): 62.6 IU/L
BUN (9 h): 24.4 mg/dL
CRE (9 h): 0.3 mg/dL
Ca (9 h): 11 mg/dL
Cl (9 h): 103.8 meq/L
DBIL (9 h): 0.016 mg/dL
GLC (9 h): 198.4 mg/dL
IP (9 h): 10.6 mg/dL
K (9 h): 5.1 meq/L
LDH (9 h): 143.8 IU/L
Na (9 h): 136.4 meq/L
PL (9 h): 136.6 mg/dL
RALB (9 h): 3.6 g/dL
TBIL (9 h): 0.056 mg/dL
TC (9 h): 78.2 mg/dL
TG (9 h): 47.6 mg/dL
TP (9 h): 5.3 g/dL
gamma-GTP (9 h): 0.4 IU/L
TERMINAL_BW (24 h): 220.6 g
APTT (24 h): 16.9 s
Bas (24 h): 0%
Eos (24 h): 1%
Fbg (24 h): 245.2 mg/dL
Hb (24 h): 12.8 g/dL
Ht (24 h): 39.6%
Lym (24 h): 74%
MCH (24 h): 21.3 pg
MCHC (24 h): 32.4%
MCV (24 h): 65.9 fL
Mono (24 h): 7.8%
Neu (24 h): 17.2%
PT (24 h): 12.1 s
Plat (24 h): 134.8 x10_4/uL
RBC (24 h): 601 x10_4/ul
Ret (24 h): 10.2%
WBC (24 h): 109.6 x10_2/uL
KIDNEY_L (24 h): 1 g
KIDNEY_R (24 h): 1 g
KIDNEY_TOTAL (24 h): 1.9 g
LIVER (24 h): 10.3 g
A/G (24 h): 2
ALP (24 h): 1595.4 IU/L
ALT (24 h): 35 IU/L
AST (24 h): 63.8 IU/L
BUN (24 h): 15 mg/dL
CRE (24 h): 0.4 mg/dL
Ca (24 h): 11.3 mg/dL
Cl (24 h): 104.8 meq/L
DBIL (24 h): 0 mg/dL
GLC (24 h): 193.2 mg/dL
IP (24 h): 7.8 mg/dL
K (24 h): 5.2 meq/L
LDH (24 h): 137 IU/L
Na (24 h): 137.8 meq/L
PL (24 h): 152.8 mg/dL
RALB (24 h): 3.7 g/dL
TBIL (24 h): 0.022 mg/dL
TC (24 h): 83.8 mg/dL
TG (24 h): 98.6 mg/dL
TP (24 h): 5.5 g/dL
gamma-GTP (24 h): 1.2 IU/L
